# According to patent US20050170019A1, “Methods, compositions and devices for inducing stasis in cells” (Fred Hutchinson Cancer Research Center, priority 2003, published 2005):
# Tests used:
# [1] = tested on: rats; conditions: cited from earlier work
# [2] = tested on: mice; experiment: Respirometry (oxygen consumption, carbon dioxide production) of mice exposed to H2S; type: in vivo, mouse
# Description: Measurements were over a period of 15 minutes, with the mice in a 0.5 L sealed environmental chamber with flow rates of 500 cc/min. Consumption of oxygen is obtained by subtracting the oxygen concentration when the mouse is present, from the control when the mouse is absent. Likewise, production of carbon dioxide is obtained by subtracting the carbon dioxide concentration when the mouse is present from the control when the mouse is absent. RQ stands for respiratory quotient, and is equal to the ratio of carbon dioxide produced to oxygen […]. […] The change in the respiratory quotient reflects the disparity oxygen consumption and carbon dioxide production by the mice in the presence or absence of the H2S.
# [3] = tested on: mice; conditions: mice tested before and after exposure
# [4] = tested on: mice; experiment: Telemetry of core body temperature, heart rate and movement of mice in regulated H2S atmosphere; type: in vivo, mouse
# Source text: Implantation of telemetry devices.
# Exposure of Mice to Regulated Atmosphere.
# Regulation of Ambient Temperature. […] Mice were exposed to regulated atmosphere as described above.
# [5] = tested on: mice; conditions: 80 ppm, cited from earlier work
# [6] = tested on: mice; experiment: Visual observation of breathing of mice administered H2S; type: in vivo, mouse
# Source text: The different parameters of stasis (reduction in oxygen consumption, decrease in carbon dioxide production or decrease in motility) can be assessed by a variety of assays and techniques. […] Indeed, this encompasses all three parameters in that it is indicative of decreased oxygen consumption, carbon dioxide production and motility. A normal mouse in room air at standard conditions will take approximately 200 breaths per minute. […] Thus, this represents at least about a 1-20-fold decrease in cellular respiration (i.e, oxygen consumption and carbon dioxide production).
# During the experiment, the mouse was visually observed and its movements were recorded by web camera, and telemetry measurements were recorded as described above. […] At the end of an approximately six-hour period, heat was applied to the cabinet by setting the cabinet temperature to 25° C. […] After the cabinet was warmed, weak respiration was observed when the core body temperature of the mouse achieved 14° C. […] Normal movement and respiration were fully apparent when the core body temperature returned to 25° C.
# [7] = tested on: humans; conditions: cited from earlier work
# [8] = mice, H2S 80 ppm versus without H2S
# [9] = second mouse, 80 ppm, 3 hrs, incubator 18° C.
smiles,measurement,setting,value
"S [hydrogen sulfide, Hydrogen sulfide]",neurologic effect of perinatal exposure,"[1]; 20 or 50 ppm, 7 hours per day, gestation through post-natal day 21",longer dendritic branches with reduced aborization of cerebellar Purkinje cells
same,"effects in exposed rat pups, perinatal study","[1]; 80 ppm (Dorman et al., 2000)","no neuropathological effects or altered motor activity, passive avoidance, or acoustic startle response"
same,learning of baited radial arm maze task,"[1]; moderate levels (Partlo et al., 2001)",interferes with the ability of rats to learn a baited radial arm maze task
same,discriminated avoidance responses,"[1]; moderate levels, immediately after end of exposure (Higuchi and Fukamachi)",inhibits discriminated avoidance responses
same,"adverse effect, gross and histopathological examination","[1]; rats, 80 ppm, 6 hrs per day, 5 days per week, 90 days",no observed adverse effect
same,RQ (respiratory quotient),[2]; H2S (80 ppm) present,0.58
same,production of carbon dioxide,[2]; H2S (80 ppm) present,750 ppm
same,Consumption of oxygen,"[2]; H2S (80 ppm) present, control without mouse minus mouse present",1300 ppm
same,drop in carbon dioxide production,[2]; [8],3-4 fold
same,drop in oxygen consumption,[2]; [8],2-3 fold
same,decrease in CO2 production,"[2]; mouse, 80 ppm (FIG. 4A)",approximately 3 fold
same,time to reduced carbon dioxide production (new baseline),"[2]; mouse, 80 ppm (FIG. 4A)",approximately 5 minutes
same,behavioral differences after gas exposure,[3],no detectable behavioral differences
same,core temperature reached,"[4]; first mouse, 80 ppm, 90 min, incubator 18° C.",28.6 °C
same,time to return to normal range of core temperature and activity in room air,"[4]; first mouse, after 90 min at 80 ppm",≤ 60 min
same,behavior of the animals after treatment,[4]; four mice maintained for 4 weeks after 6 hr 80 ppm at 15° C.,no apparent change in the behavior
same,behavior compared to untreated animals,[4]; mouse after 80 ppm at cabinet 10.5° C.,no apparent change in the behavior
same,core body temperature repeatedly reached,"[4]; mouse, 80 ppm protocol",13-15 °C
same,lowest core body temperature recorded (FIG. 7),"[4]; mouse, 80 ppm, ambient dropped to less than 10° C.",10.7 °C
same,time to recover activity after removal from gassing chamber,"[4]; non-telemetry mouse, 80 ppm, cabinet 10° C.",≤ 90 min
same,core temperature reached,[4]; [9],18.6 °C
same,heart rate reached (from 600 bpm),[4]; [9],250 bpm
same,recovery after rewarming in room air,"[4]; seven mice, 80 ppm, 6 hrs",successfully recovered
same,lowest average core body temperature,"[4]; seven mice, 80 ppm, 6 hrs, ambient temperature 13° C.",15 °C
same,"core temperature reached (estimation, electronics failed at 15.3° C.)","[4]; telemetry mouse, 80 ppm, cabinet 10° C.",approximately 12.5 °C
same,core body temperature reached,"[4]; telemetry mouse, 80 ppm, cabinet 10.5° C., approximately six hours",10.5 °C
same,tolerability,"[5]; exposures lasting up to ten weeks (CIIT 1983; Hays, 1972)",innocuous
same,"adverse effect, gross and histopathological examination","[5]; mice, 6 hrs per day, 5 days per week, 90 days",no observed adverse effect
same,core body temperature at which weak respiration was observed on warming,"[6]; 80 ppm, after cabinet 10.5° C., warming",14 °C
same,decrease in cellular respiration,"[6]; 80 ppm, core temperature 15° C., from breathing",1-20 fold
same,breathing,"[6]; 80 ppm, core temperature dropped to 15° C., normal approximately 200",1-10 breaths per minute
same,core body temperature at which normal movement and respiration were fully apparent,"[6]; after 80 ppm at 10.5° C., warming, room air",25 °C
same,effect of exposure to extreme levels,[7]; 500 ppm,sudden collapse and unconsciousness
same,effect of a single breath (knock down),[7]; atmosphere with 0.1% hydrogen sulfide,immediately collapse
same,OSHA limit for humans,[7]; in vivo,10 ppm
